Laboratory results taken from PMC12383022, “Discovery of a Novel Antimicrobial Peptide from Paenibacillus sp. Na14 with Potent Activity Against Gram-Negative Bacteria and Genomic Insights into Its Biosynthetic Pathway” (Antibiotics, 2025).
Like-named read-outs stand apart in the source and are kept apart here. Where no end group is shown, it is not given here.

Key:
E. coli TISTR 887 [1] = conditions: agar well diffusion vs untreated control, mean ± SD, three independent experiments
Experimental: (§3) The purified Na14 AMP was prepared at a concentration of 10× MIC. Thermal stability was assessed by incubating the peptide at 30 °C, 50 °C, 70 °C, and 90 °C for 3 h. pH stability was evaluated by adjusting the peptide solution to pH 3, 5, 7, 9, and 11 using 1 N HCl or 1 N NaOH, followed by incubation at 37 °C for 3 h and subsequent neutralization to the original pH. […] The residual antimicrobial activity of each treatment condition was determined using an agar well diffusion assay against E. coli TISTR 887, P. aeruginosa TISTR 357, and K. pneumoniae TISTR 1383 to cross-validate efficacy across multiple pathogens. The untreated peptide served as a control. Statistical significance was analyzed using one-way ANOVA, with comparisons to the control group considered significant at p-value < 0.05. The results are presented as the percentage of residual antimicrobial activity.

K. pneumoniae TISTR 1383 [2] = assay: Time–kill assay; format: cell-based, Klebsiella pneumoniae
Experimental: (§1) The cultures were diluted 20-fold using CAMHB. […] The diluted bacterial suspension (10 μL) was mixed into each well before incubating the plates at 37 °C. At predetermined time points, 100 μL of either diluted or undiluted samples from each well were plated on MH agar and incubated at 37 °C for 24 h. Bacterial viability was assessed by colony counting and expressed as log CFU/mL [56].

E. coli TISTR 887 [3] = assay: SDS-PAGE gel overlay inhibition assay; format: cell-based, Escherichia coli; conditions: 15% SDS-PAGE gel overlaid with soft agar containing E. coli TISTR 887; at the position of the peptide band
Experimental: The peptides ([…]) were subjected to analysis using a 15% sodium dodecyl sulfate-polyacrylamide gel electrophoresis (SDS-PAGE). The gel was electrophoresed at a constant voltage of 100 V. One half of the gel was stained using Coomassie brilliant blue G-250 to visualize protein bands, with a molecular weight marker included to facilitate band position comparison. The remaining half was fixed in a solution containing 5% acetic acid and 25% methanol for 30 min, followed by a 3 h wash with distilled water. Subsequently, 18 mL of soft MH agar, including E. coli TISTR 887, was overlaid onto the gel to assess antimicrobial activity by observing inhibition zones after incubation at 37 °C for 24 h.

K. pneumoniae TISTR 1383 [4] = conditions: agar well diffusion vs untreated control, mean ± SD, three independent experiments
Experimental: as §3

P. aeruginosa TISTR 357 [5] = format: cell-based, Pseudomonas aeruginosa; conditions: TISTR 357, 24 h
Experimental: (§2) A bacterial suspension was prepared by adjusting its turbidity at OD 625 nm to 0.1 and subsequently made a 20-fold dilution using Cation-Adjusted Mueller–Hinton broth (CAHMB) as a diluent. […] The diluted cell suspension (10 µL) was added to each well, and the plates were incubated at 37 °C for 24 h. The CAMHB alone was used as a negative control, while CAMHB containing colistin or vancomycin served as a positive control.

E. coli TISTR 887 [6] = format: cell-based, Escherichia coli; conditions: TISTR 887, 24 h
Experimental: as §2

MRSA Strain 2468 = assay: microbe, parasite or virus in culture; format: cell-based, Staphylococcus aureus; conditions: Strain 2468, 24 h
Experimental: as §2

S. aureus TISTR 517 = assay: microbe, parasite or virus in culture; format: cell-based, Staphylococcus aureus; conditions: TISTR 517, 24 h
Experimental: as §2

K. pneumoniae TISTR 1383 [7] = format: cell-based, Klebsiella pneumoniae; conditions: TISTR 1383, 24 h
Experimental: as §2

E. coli TISTR 887 [8] = assay: Time–kill assay; format: cell-based, Escherichia coli
Experimental: as §1

P. aeruginosa TISTR 357 [9] = conditions: agar well diffusion vs untreated control, mean ± SD, three independent experiments
Experimental: as §3

E. coli TISTR 887 [10] = assay: Antimicrobial activity of purification fractions (arbitrary units, two-fold dilutions, agar well diffusion); format: cell-based, Escherichia coli; conditions: against E. coli TISTR 887
Experimental: Single colonies of the Na14 isolate were resuspended in 0.9% NaCl solution, and the cell suspension was adjusted to an OD of 0.35 at 625 nm. A 2% aliquot of this suspension was inoculated into 196 mL of LB broth and incubated at 37 °C for 24 h. The CFS was collected by centrifugation at 10,000× g for 15 min at 4 °C. Bioactive compounds were then precipitated using stepwise ammonium sulfate precipitation at 25%, 50%, and 75% saturation levels. The active compounds were purified using cation exchange chromatography (CIEX) followed by reversed-phase chromatography (RPC), as described in our previous study. The purified compounds were concentrated using a refrigerated speed vacuum concentrator. The dried samples were reconstituted in deionized water and subjected to two-fold serial dilutions. An aliquot (100 µL) of each dilution was used to evaluate antimicrobial activity using the agar well diffusion method, employing E. coli TISTR 887 as the tested bacteria. The purification efficiency was assessed by calculating antimicrobial activity at each purification stage using the following equation [49]. Antimicrobial activity (arbitrary unit/mL; AU/mL)= 2^n × 1000/V where n represents the reciprocal of the highest two-fold dilution that produces a visible inhibition zone, and V denotes the volume of the sample in µL.

[11] = system: E. coli TISTR 887, P. aeruginosa TISTR 357, K. pneumoniae TISTR 1383; assay: Time–kill kinetic assay, statement for all tested strains; format: cell-based; conditions: peptide at 1× MIC
Experimental: as §1

P. aeruginosa TISTR 357 [12] = assay: Time–kill assay; format: cell-based, Pseudomonas aeruginosa
Experimental: as §1

P. aeruginosa LMG6395 = conditions: cited from earlier work
K. pneumoniae LMG20218 = conditions: cited from earlier work
MRSA ATCC 15975 = conditions: cited from earlier work
E. coli ATCC 25922 = conditions: cited from earlier work
MRSA = conditions: 10× MIC; cited from earlier work
[13] = peptide at 10× MIC adjusted to pH 3 (1 N HCl or 1 N NaOH), 37 °C, 3 h, then neutralized
[14] = peptide at 10× MIC adjusted to pH 5, 37 °C, 3 h, then neutralized
[15] = peptide at 10× MIC adjusted to pH 7, 37 °C, 3 h, then neutralized
[16] = peptide at 10× MIC adjusted to pH 9, 37 °C, 3 h, then neutralized
[17] = peptide at 10× MIC adjusted to pH 11, 37 °C, 3 h, then neutralized
[18] = peptide at 10× MIC incubated at 30 °C for 3 h
[19] = peptide at 10× MIC incubated at 50 °C for 3 h
[20] = peptide at 10× MIC incubated at 70 °C for 3 h
[21] = peptide at 10× MIC incubated at 90 °C for 3 h
[22] = peptide at 0.5× MIC, growth resumed thereafter until 24 h
[23] = peptide at 1× MIC, CAMHB, 37 °C, LOD 10 CFU/mL
[24] = peptide at 2× MIC, CAMHB, 37 °C, LOD 10 CFU/mL

LALLVVVKVLKYVV [Na14 peptide]
Residual Antimicrobial Activity, E. coli TISTR 887 (E. coli TISTR 887 [1]; [13]): 100.64 ± 2.30% | Residual Antimicrobial Activity, E. coli TISTR 887 (E. coli TISTR 887 [1]; [14]): 100.85 ± 1.95% | Residual Antimicrobial Activity, E. coli TISTR 887 (E. coli TISTR 887 [1]; [15]): 99.36 ± 2.93% | Residual Antimicrobial Activity, E. coli TISTR 887 (E. coli TISTR 887 [1]; [16]): 98.72 ± 1.28% | Residual Antimicrobial Activity, E. coli TISTR 887 (E. coli TISTR 887 [1]; [17]): 98.51 ± 1.33% | Residual Antimicrobial Activity, E. coli TISTR 887 (E. coli TISTR 887 [1]; [18]): 98.24 ± 1.67% | Residual Antimicrobial Activity, E. coli TISTR 887 (E. coli TISTR 887 [1]; [19]): 99.12 ± 1.02% | Residual Antimicrobial Activity, E. coli TISTR 887 (E. coli TISTR 887 [1]; [20]): 98.89 ± 2.03% | Residual Antimicrobial Activity, E. coli TISTR 887 (E. coli TISTR 887 [1]; [21]): 98.46 ± 1.55% | duration of growth inhibition, K. pneumoniae TISTR 1383 (K. pneumoniae TISTR 1383 [2]; [22]): up to 6 h | time at which bacteria were eliminated, K. pneumoniae TISTR 1383 (K. pneumoniae TISTR 1383 [2]; [23]): 9 h | time of complete eradication, K. pneumoniae TISTR 1383 (K. pneumoniae TISTR 1383 [2]; [24]): 6 h | gel overlay inhibition of E. coli TISTR 887 (E. coli TISTR 887 [3]): An inhibition zone was observed | Residual Antimicrobial Activity, K. pneumoniae TISTR 1383 (K. pneumoniae TISTR 1383 [4]; [13]): 100.43 ± 0.37% | Residual Antimicrobial Activity, K. pneumoniae TISTR 1383 (K. pneumoniae TISTR 1383 [4]; [14]): 99.14 ± 1.35% | Residual Antimicrobial Activity, K. pneumoniae TISTR 1383 (K. pneumoniae TISTR 1383 [4]; [15]): 98.06 ± 2.34% | Residual Antimicrobial Activity, K. pneumoniae TISTR 1383 (K. pneumoniae TISTR 1383 [4]; [16]): 97.62 ± 2.08% | Residual Antimicrobial Activity, K. pneumoniae TISTR 1383 (K. pneumoniae TISTR 1383 [4]; [17]): 99.57 ± 2.08% | Residual Antimicrobial Activity, K. pneumoniae TISTR 1383 (K. pneumoniae TISTR 1383 [4]; [18]): 100.89 ± 0.39% | Residual Antimicrobial Activity, K. pneumoniae TISTR 1383 (K. pneumoniae TISTR 1383 [4]; [19]): 98.21 ± 4.09% | Residual Antimicrobial Activity, K. pneumoniae TISTR 1383 (K. pneumoniae TISTR 1383 [4]; [20]): 98.66 ± 4.07% | Residual Antimicrobial Activity, K. pneumoniae TISTR 1383 (K. pneumoniae TISTR 1383 [4]; [21]): 99.11 ± 1.39% | MBC, P. aeruginosa TISTR 357 (P. aeruginosa TISTR 357 [5]): 2 mg/L | MIC, P. aeruginosa TISTR 357 (P. aeruginosa TISTR 357 [5]): 2 mg/L | MBC, E. coli TISTR 887 (E. coli TISTR 887 [6]): 2 mg/L | MIC, E. coli TISTR 887 (E. coli TISTR 887 [6]): 2 mg/L | MBC, MRSA strain 2468 (MRSA Strain 2468): >128 mg/L | MIC, MRSA strain 2468 (MRSA Strain 2468): >128 mg/L | MBC, S. aureus TISTR 517 (S. aureus TISTR 517): >128 mg/L | MIC, S. aureus TISTR 517 (S. aureus TISTR 517): >128 mg/L | MBC, K. pneumoniae TISTR 1383 (K. pneumoniae TISTR 1383 [7]): 4 mg/L | MIC, K. pneumoniae TISTR 1383 (K. pneumoniae TISTR 1383 [7]): 4 mg/L | duration of temporary growth suppression, E. coli TISTR 887 (E. coli TISTR 887 [8]; [22]): 3 h | time at which bacteria were eliminated, E. coli TISTR 887 (E. coli TISTR 887 [8]; [23]): 12 h | time of complete eradication, E. coli TISTR 887 (E. coli TISTR 887 [8]; [24]): 6 h | Residual Antimicrobial Activity, P. aeruginosa TISTR 357 (P. aeruginosa TISTR 357 [9]; [13]): 99.58 ± 0.74% | Residual Antimicrobial Activity, P. aeruginosa TISTR 357 (P. aeruginosa TISTR 357 [9]; [14]): 99.36 ± 1.69% | Residual Antimicrobial Activity, P. aeruginosa TISTR 357 (P. aeruginosa TISTR 357 [9]; [15]): 99.36 ± 3.18% | Residual Antimicrobial Activity, P. aeruginosa TISTR 357 (P. aeruginosa TISTR 357 [9]; [16]): 98.73 ± 2.30% | Residual Antimicrobial Activity, P. aeruginosa TISTR 357 (P. aeruginosa TISTR 357 [9]; [17]): 98.30 ± 2.24% | Residual Antimicrobial Activity, P. aeruginosa TISTR 357 (P. aeruginosa TISTR 357 [9]; [18]): 98.08 ± 1.11% | Residual Antimicrobial Activity, P. aeruginosa TISTR 357 (P. aeruginosa TISTR 357 [9]; [19]): 98.51 ± 0.37% | Residual Antimicrobial Activity, P. aeruginosa TISTR 357 (P. aeruginosa TISTR 357 [9]; [20]): 98.72 ± 0.64% | Residual Antimicrobial Activity, P. aeruginosa TISTR 357 (P. aeruginosa TISTR 357 [9]; [21]): 97.22 ± 1.62% | Specific Activity (E. coli TISTR 887 [10]; purification balance sheet): 835.99 AU/mg | Arbitrary Activity (E. coli TISTR 887 [10]; two-fold serial dilutions, 100 µL, agar well diffusion, AU/mL = 2^n × 1000/V): 320 AU/mL | reduction of bacterial counts [11]: more than 3 log units | duration of temporary growth suppression, P. aeruginosa TISTR 357 (P. aeruginosa TISTR 357 [12]; [22]): 3 h | time at which bacteria were eliminated, P. aeruginosa TISTR 357 (P. aeruginosa TISTR 357 [12]; [23]): 6 h | time of complete eradication, P. aeruginosa TISTR 357 (P. aeruginosa TISTR 357 [12]; [24]): 3 h

brevibacillin 2V
MIC, P. aeruginosa LMG6395 (P. aeruginosa LMG6395): 64 mg/L | MIC, K. pneumoniae LMG20218 (K. pneumoniae LMG20218): 32 mg/L | MIC, MRSA ATCC 15975 (MRSA ATCC 15975): 2 mg/L | MIC, E. coli ATCC 25922 (E. coli ATCC 25922): 16 mg/L | time to complete killing of MRSA (MRSA): ≤ 6 h
